Assay results from paper PMC6271714, “Hypotensive Effects and Angiotensin-Converting Enzyme Inhibitory Peptides of Reishi (Ganoderma lingzhi) Auto-Digested Extract” (Molecules, 2014).
Where a SMILES comes first, the peptide text is derived from it.

What follows are compounds tested against T1, Angiotensin-Converting Enzyme (ACE) (Homo sapiens, UniProt P12821) (assay: ACE inhibition assay (Dojindo ACE Kit-WST A502)). Conditions: synthesized peptides, six concentrations 10 to 100 μg/mL; read-out: IC50 Values (μM), ACE inhibition capacity.
T1 construct: purchased Dojindo Laboratories ACE Kit-WST A502
T1 sequence (P12821 30-1306, species assumed): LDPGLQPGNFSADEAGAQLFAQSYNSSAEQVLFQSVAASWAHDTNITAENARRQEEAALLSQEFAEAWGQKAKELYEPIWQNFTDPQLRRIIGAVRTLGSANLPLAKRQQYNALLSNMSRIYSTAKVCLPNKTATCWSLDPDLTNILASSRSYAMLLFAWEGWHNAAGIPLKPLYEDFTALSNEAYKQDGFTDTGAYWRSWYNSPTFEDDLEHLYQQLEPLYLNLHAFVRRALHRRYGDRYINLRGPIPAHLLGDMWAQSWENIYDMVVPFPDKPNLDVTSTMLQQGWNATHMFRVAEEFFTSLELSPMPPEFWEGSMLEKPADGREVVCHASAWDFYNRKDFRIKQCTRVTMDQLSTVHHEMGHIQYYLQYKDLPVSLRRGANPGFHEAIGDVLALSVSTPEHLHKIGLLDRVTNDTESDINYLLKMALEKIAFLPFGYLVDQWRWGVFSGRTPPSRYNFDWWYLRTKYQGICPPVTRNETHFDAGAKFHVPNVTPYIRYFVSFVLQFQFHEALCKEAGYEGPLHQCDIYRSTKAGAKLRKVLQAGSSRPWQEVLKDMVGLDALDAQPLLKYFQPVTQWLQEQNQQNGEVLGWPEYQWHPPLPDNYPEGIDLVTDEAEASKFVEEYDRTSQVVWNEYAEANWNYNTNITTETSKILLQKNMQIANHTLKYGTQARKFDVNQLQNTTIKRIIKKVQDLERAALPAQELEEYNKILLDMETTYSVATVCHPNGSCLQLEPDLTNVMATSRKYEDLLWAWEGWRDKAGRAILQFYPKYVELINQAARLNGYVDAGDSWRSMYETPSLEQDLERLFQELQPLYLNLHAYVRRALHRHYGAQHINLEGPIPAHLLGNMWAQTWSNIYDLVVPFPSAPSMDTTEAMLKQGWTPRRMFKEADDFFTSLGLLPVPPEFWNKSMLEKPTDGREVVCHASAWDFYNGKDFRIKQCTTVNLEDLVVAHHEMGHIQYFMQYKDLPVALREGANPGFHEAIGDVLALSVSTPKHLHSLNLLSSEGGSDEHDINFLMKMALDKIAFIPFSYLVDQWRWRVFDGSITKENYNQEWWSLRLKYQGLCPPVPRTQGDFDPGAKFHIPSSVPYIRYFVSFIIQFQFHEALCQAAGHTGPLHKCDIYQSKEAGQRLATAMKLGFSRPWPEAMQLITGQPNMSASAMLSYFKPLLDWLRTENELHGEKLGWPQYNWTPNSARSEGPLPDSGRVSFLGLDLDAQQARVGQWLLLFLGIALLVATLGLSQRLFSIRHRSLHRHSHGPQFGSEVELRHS
Type: biochemical
Description: Dojindo ACE Kit-WST A502 was used for testing the ACE-inhibitory activity. Principles of the kit were described in details in a previous report. Testing procedures were run strictly according to the manufacturer’s instructions using a 96-well plate, and inhibition rate was calculated based on the comparison of optical absorbance of sample-treated wells (As), control wells (Ac) and blank wells (Ab) as in the equation below. Absorbance was measured at 450 nm using microplate reader-Biotek-ELX800 (BioTek, Winooski, VT, USA): Inhibition rate (%) = [(Ac − As)/(Ac − Ab)]×100 (1)
For the peptides, six different concentrations of each peptide, ranging from 10 to 100 μg/mL, were assayed, and dose-response curves were plotted for the calculation of the IC50 values. IPP has been proven to be an ACE inhibitor [34] and thus was used as positive control (at concentrations ranging from 0.15 to 5 μg/mL).

Row | IC50 [µM] | SMILES
1 | 73.1 | CC[C@H](C)[C@H](N)C(=O)N1CCC[C@H]1C(=O)N[C@H](C(=O)O)[C@@H](C)O [Ile-Pro-Thr] (H-Ile-Pro-Thr-OH)
2 | > 200 | CC(C)C[C@H](NC(=O)[C@@H](N)[C@@H](C)O)C(=O)O [Thr-Leu] (H-Thr-Leu-OH)
3 | > 200 | CC(C)C[C@H](NC(=O)[C@H](C)N)C(=O)O [Ala-Leu] (H-Ala-Leu-OH)
4 | 73.7 | CC[C@H](C)[C@H](N)C(=O)N[C@@H](CCCNC(=N)N)C(=O)O [Ile-Arg]
5 | > 500 | CC(C)C[C@H](NC(=O)[C@@H]1CCCN1C(=O)CN)C(=O)O [Gly-Pro-Leu] (H-Gly-Pro-Leu-OH)
6 | > 200 | CC[C@H](C)[C@H](NC(=O)[C@@H](N)CO)C(=O)O [Ser-Ile] (H-Ser-Ile-OH)
7 | > 200 | CC(C)C[C@H](NC(=O)[C@@H](N)CO)C(=O)O [Ser-Leu] (H-Ser-Leu-OH; N-terminus and C-terminus assumed)
8 | 163 | C[C@H](N)C(=O)N[C@@H](Cc1ccc(O)cc1)C(=O)O [Ala-Tyr] (H-Ala-Tyr-OH)
9 | > 500 | CC(C)[C@H](NC(=O)[C@@H](N)CCCCN)C(=O)N1CCC[C@H]1C(=O)O [Lys-Val-Pro] (H-Lys-Val-Pro-OH)
10 | 342 | CC[C@H](C)[C@H](NC(=O)[C@H](CO)NC(=O)[C@@H](N)CC(N)=O)C(=O)O [Asn-Ser-Ile] (H-Asn-Ser-Ile-OH)
11 | 94.7 | N[C@@H](CO)C(=O)N[C@@H](Cc1ccc(O)cc1)C(=O)O [Ser-Tyr] (H-Ser-Tyr-OH)
